According to patent US10335608B2, “Photodynamic compounds and methods for activating them using ionizing radiation and/or other electromagnetic radiation for therapy and/or diagnostics” (THERALASE TECHNOLOGIES, INC., priority 2016, dated 2019):

How the values were obtained:
[1] = In vivo CT imaging of the photosensitizer after tail vein injection; conditions: rat, 1 mg/kg via tail vein, 5 min to 4 hours post administration
Method: For in vivo imaging of the photosensitizer, a rat was injected with 1 mg/kg of OsH2dppn via tail vein and imaged with a small animal CT scanner as a function of time post-systemic administration (5, 10, 30 min, 1, 2, 4 hours).

[2] = test system: U87 cells; assay: Presto Blue cell kill after light and/or X-ray PDT, U87 cells; format: cell-based, human; conditions: 20 μM
Method: The cells were incubated in complete DMEM media containing antibiotics and 10% FBS (resulting in 2.5 μM bovine Tf in the medium) and all the solutions were prepared in this media. The cells were loaded with TLD1433 or TLDOsH2IP (20-80 μM) for 4 hours at 37° C. Subsequently, a wash with complete medium was performed followed by irradiation with red (625 nm, 90 J cm^−2) or near infrared (808 nm, 600 J cm^−2) light, X-ray (5 Gy, 225 keV), X-ray followed by light or light followed by X-ray. Matched dark controls were used in parallel: incubation at ambient conditions (ambient air, room temperature) for a length of time corresponding to the irradiation session. After irradiation, the cells were returned to the incubator. After 21 hours, the viability of cells was determined by Presto Blue assay, and cell kill was calculated as percent of matched control. Pure PDT effect was calculated in the following way: Pure PDT effect (percent cell kill)=Total PDT percent cell kill−Light alone percent cell kill−Dark percent cell kill.

[3] = near infrared light (808 nm, 600 J cm^−2)

Row | SMILES | Distribution on CT images over time [1] | Dark cell kill (%) ([2]; no irradiation) | PDT cell kill (%) ([2]; Near Infrared & X-ray) | Pure PDT effect (% cell kill, in brackets) ([2]; Near Infrared & X-ray) [% cell kill] | Synergy in the pure PDT effect (% cell kill) ([2]; Near Infrared & X-ray) | PDT cell kill (%) ([2]; X-ray & Near Infrared) | Pure PDT effect (% cell kill, in brackets) ([2]; X-ray & Near Infrared) [% cell kill] | Synergy in the pure PDT effect (% cell kill) ([2]; X-ray & Near Infrared) | PDT cell kill (%) ([2]; X-ray (5 Gy, 225 KeV)) | Pure PDT effect (% cell kill, in brackets) ([2]; X-ray (5 Gy, 225 KeV)) [% cell kill] | PDT cell kill (%) [2, 3] [%] | Pure PDT effect (% cell kill, in brackets) [2, 3] [% cell kill]
1 | [Os+2].c1ccc2cc3nc4c5cccnc5c5ncccc5c4nc3cc2c1.c1ccc2nc(-c3ccc4ccccc4n3)ccc2c1.c1ccc2nc(-c3ccc4ccccc4n3)ccc2c1 [OsH2dppn, [Os(biq)2(LL)] benzo[i]dipyrido-[3,2-a:2′,3′-c]phenazine] | presumably accumulating in the bladder over time | – | – | – | – | – | – | – | – | – | – | –
2 | [Os+2].c1ccc2nc(-c3ccc4ccccc4n3)ccc2c1.c1ccc2nc(-c3ccc4ccccc4n3)ccc2c1.c1cnc2c(c1)c1nc[nH]c1c1cccnc12 [OsH2IP, [Os(biq)2(LL)] imidazo[4,5-f][1,10]phenanthroline] | – | 5.1 | 31.5 | 17.0 | −9.3 | 50.0 | 39.6 | 13.4 | 13.8 | 6.8 | 24.6 | 19.5
